{"source": "patent US20080299193A1", "about": "“Pharmaceutical composition comprising eszoplicone” (Lek Pharmaceuticals d.d., priority 2007, published 2008)", "key": {"[1]": {"experiment": "Solubility of eszopiclone in phosphate buffer media at pH 6.8", "assay_type": "physicochemical", "method": "Substance containing larger particles has in general lower surface area which may result in decreased water solubility and consequently in decreased biological activity due to impaired absorption from the gastrointestinal tract. […] The solubility was measured at pH 6.8, which represents the pH in the small intestine, a primary site of drug absorption. Therefore, no effect on the gastrointestinal absorption can be expected due to larger particles of eszopiclone.\nThe solubility of eszopiclone in phosphate buffer media at pH 6.8 was studied at room temperature. An excess of sample was placed in the laboratory beaker filled with 50 ml media and mixed on the magnetic stirrer for 60 minutes. Afterwards, the part of the dispersion was taken from the beaker, filtered through the 0.45 μm filter and the concentration of eszopiclone was determined by UV spectroscopy."}, "[2]": {"experiment": "Stress stability testing at 60° C. for 14 days, impurities by HPLC", "assay_type": "physicochemical", "method": "Tablets comprising eszopiclone with different particle sizes were prepared and exposed to stress stability testing at 60° C. for 14 days, stored in vials. The amount of formed degradation products was compared to the sample of commercially available tablets comprising eszopiclone (Lunesta®).\nThe HPLC analysis were performed with a WATERS Acquity UPLC system equipped with a UPLC BEH Shield, 1.7 μm, 50×2.1 mm column which was maintained in a column oven at 45° C. The mobile phase consisted of a mixture of ammonium acetate, TEA and acetonitrile with pH=5.8. The flow rate was 1.0 mL/min, and the detection wavelength was 303 nm.\nAll impurities eluted within 21 minutes represent the total amount of eszopiclone impurities."}}, "data": [{"smiles": "CN1CCN(C(=O)O[C@H]2c3nccnc3C(=O)N2c2ccc(Cl)cn2)CC1", "note": "[Eszopiclone with d(0.9) = 32.4 μm]", "values": [{"measurement": "Solubility at pH 6.8", "setting": "[1]; phosphate buffer pH 6.8, room temperature, 60 minutes stirring, filtered 0.45 μm, UV spectroscopy", "value": 0.44, "unit": "mg/ml"}]}, {"smiles": "CN1CCN(C(=O)O[C@H]2c3nccnc3C(=O)N2c2ccc(Cl)cn2)CC1", "note": "[Eszopiclone with d(0.9) > 200 μm]", "values": [{"measurement": "Solubility compared to substance having fine particles (in words)", "setting": "[1]; pH 6.8", "value": "comparable"}, {"measurement": "solubility at 60 min", "setting": "[1]; phosphate buffer, pH 6.8, aqueous buffer, thermodynamic from solid, phosphate buffer pH 6.8, room temperature, 60 minutes stirring, filtered 0.45 μm, UV spectroscopy", "value": 570, "unit": "µg/mL"}]}, {"smiles": "CN1CCN(C(=O)O[C@H]2c3nccnc3C(=O)N2c2ccc(Cl)cn2)CC1", "note": "[Substance in a crystal form, (+)-5(S)-6-(chloropyridin-2-yik)-7-oxo-6,7-dihydro-5H-pyrrolo[3,4-b]pyrazin-5-yl 4-methylpiperazine-1-carboxylate]", "values": [{"measurement": "Stability at elevated temperature (in words)", "setting": "[2]; 60° C. for 14 days", "value": "stable"}, {"measurement": "Total sum of impurities", "setting": "[2]; 14 days, 60° C., stored in vials, all impurities eluted within 21 minutes", "value": "<0.05", "unit": "%"}, {"measurement": "Max. unknown", "setting": "[2]; 14 days, 60° C., stored in vials, maximum unknown impurity", "value": "<0.05", "unit": "%"}]}]}
